Active and inactive are the calls of the source. No rule for the calls is given here. Some results are limits rather than exact numbers.

For this assay, the target named is E3 ubiquitin-protein ligase UHRF1 (Homo sapiens) (UniProt Q96T88). Put plainly: UHRF1 methylated DNA binding inhibitors, late-stage follow-up, counter-screen for MBD2 inhibitor project, biochemical, TR-FRET, human UHRF1, dose response (AID 1053170). Background: Counterscreens check selectivity or assay interference.
E3 ubiquitin-protein ligase UHRF1 (Homo sapiens), sequence (Q96T88 whole entry, looked up): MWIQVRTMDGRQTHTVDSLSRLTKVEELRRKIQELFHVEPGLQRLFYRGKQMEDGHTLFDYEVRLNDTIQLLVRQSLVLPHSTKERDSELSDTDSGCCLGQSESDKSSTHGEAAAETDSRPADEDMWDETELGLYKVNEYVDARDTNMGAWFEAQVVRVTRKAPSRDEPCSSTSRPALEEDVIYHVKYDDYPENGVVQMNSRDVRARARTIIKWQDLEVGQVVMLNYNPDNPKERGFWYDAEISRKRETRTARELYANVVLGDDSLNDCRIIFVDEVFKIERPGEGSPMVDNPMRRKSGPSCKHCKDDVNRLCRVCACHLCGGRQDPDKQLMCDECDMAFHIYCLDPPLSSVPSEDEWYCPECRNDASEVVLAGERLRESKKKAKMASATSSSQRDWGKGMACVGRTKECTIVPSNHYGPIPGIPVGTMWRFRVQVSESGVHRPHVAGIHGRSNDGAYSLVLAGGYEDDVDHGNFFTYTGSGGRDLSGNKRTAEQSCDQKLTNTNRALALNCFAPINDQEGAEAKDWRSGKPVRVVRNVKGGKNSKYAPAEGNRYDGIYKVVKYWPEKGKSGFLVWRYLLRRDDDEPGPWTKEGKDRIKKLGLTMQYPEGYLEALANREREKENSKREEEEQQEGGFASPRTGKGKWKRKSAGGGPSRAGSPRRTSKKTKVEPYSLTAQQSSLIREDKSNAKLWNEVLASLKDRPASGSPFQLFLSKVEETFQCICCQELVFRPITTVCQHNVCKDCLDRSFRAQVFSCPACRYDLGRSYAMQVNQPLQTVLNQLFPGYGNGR
Regarding `CN(C)CCNc1ccc(CO)c2sc3ccc(O)cc3c(=O)c12`, the IC50 (as a rule, the concentration that gives 50% inhibition) is > 43.8 µM (inactive).
`COc1ccc(C(=O)N2CCC(C(=O)Nc3ccc(C)cc3)CC2)cc1`: the IC50 is > 43.8 µM (inactive).
As for `CSc1ccc(OC2CCCCC2NS(=O)(=O)c2ccc(Cl)cc2)cc1` (configuration not stated), the IC50 was > 43.8 µM (inactive).
As for `COc1ccc(NC(=O)COC(=O)CCc2ccc(S(=O)(=O)N3CCOCC3)cc2)cc1Cl`, the IC50 was > 43.8 µM (inactive).
Take `CC(=O)N(c1ccccc1)c1nc(/C=C/C(=O)Nc2c(C)cc(C)cc2C)cs1`: the IC50 is > 43.8 µM (inactive).
As to `Clc1ccc2c(c1)-c1ccccc1C1=NCCN12`, the IC50 entry is “inactive”.
Consider `CC(C)C(=O)Nc1nnc(SCC(=O)NC2CCCC2)s1`, for which the IC50 is > 43.8 µM (inactive).
For `CCOC(=O)c1ccc(NC(=O)COc2ccc(CNCCO)cc2OCC)cc1`, the IC50 was > 43.8 µM (inactive).
In the case of `Cc1cc(C)n2nc(CC(=O)NCc3ccc(F)cc3)nc2n1`, the IC50 was > 43.8 µM (inactive).
On to `Cc1cc2[nH]c3c4ccccc4nc(C)c3c2cc1C`, for which the IC50 entry is “inactive”.
`O=C(CSc1ccccn1)Nc1ccc(N2CCOCC2)cc1`: the IC50 was > 43.8 µM (inactive).
In the case of `CCOc1ccc(S(=O)(=O)N2CCCC(C(=O)NCC3CCCO3)C2)cc1Cl` (configuration not stated), the IC50 was > 43.8 µM (inactive).
Take `COc1cccc2nc3c(C(=O)NCCN(C)C)cccc3cc12`: the IC50 was > 43.8 µM (inactive).
With `CCc1cccc(OCC(=O)Nc2ccc(S(=O)(=O)Nc3ccccn3)cc2)c1`, the IC50 is > 43.8 µM (inactive).
In the case of `CN(C)CCNC(=O)c1cccc2[nH]c(-c3ccncc3)nc12`, the IC50 entry was “inactive”.
The same measure for `COc1ccc2c(=O)c3c(=O)n(-c4ccccc4)c(-c4ccc(C)cc4)nc3oc2c1`: > 43.8 µM (inactive); for `O=C(Nc1ccc(OCc2ccccc2)cc1)c1ccccc1`: > 43.8 µM (inactive).
On to `O=C(CSc1nc(-c2ccccc2)c(-c2ccccc2)o1)N1CCOCC1`, for which the IC50 was > 43.8 µM (inactive).
Turning to `CSc1ccc(OC2CCCCC2NS(=O)(=O)c2ccccc2)cc1` (configuration not stated), the IC50 was > 43.8 µM (inactive).
The same measure for `Cc1ccc(NCCN(C)C)c2c(=O)c3cc(O)ccc3sc12`: “inactive”; for `CCOC(=O)c1oc2ccc(CNC(C)(C)C)c(Cl)c2c1C`: > 43.8 µM (inactive); for `N=C1C(c2nc3ccccc3s2)=C(O)CN1NC(=O)c1c[nH]c2ccccc12`: > 43.8 µM (inactive).
Turning to `Cc1ccc(Cl)cc1N1CCN(S(=O)(=O)c2ccc3c(c2)NC(=O)C(C)C(=O)N3)CC1` (configuration not stated), the IC50 was > 43.8 µM (inactive).
The same measure for `COc1ccc(C(=O)NCCN(C)C)c2nc3ccccc3cc12`: “inactive”.
Consider `CC(C)n1nc(C(=O)Nc2nc3ccccc3[nH]2)c2ccccc2c1=O`, for which the IC50 was > 43.8 µM (inactive).
For `CCOC(=O)c1cnc2c(ccc3ccccc32)c1NCCCN(C)C`, the IC50 entry is “inactive”.
With `Cc1c2cnn(CC(=O)Nc3c(F)c(F)cc(F)c3F)c(=O)c2c(C)n1Cc1ccccc1F`, the IC50 entry is “inactive”.
`COc1ccc(NC(=O)CN2CCN(c3ccccc3C)CC2)cc1`: the IC50 is > 43.8 µM (inactive).
For `COc1ccc(NC(=O)Cn2cc(C(C)=O)c3ccccc32)cc1`, the IC50 was > 43.8 µM (inactive).
The same measure for `c1ccc2c(c1)C1=NCCN1c1ccccc1-2`: “inactive”; for `COc1ccccc1C(=O)COC(=O)c1ccc(N(C)C)cc1`: > 43.8 µM (inactive); for `CCCCn1c(NC(C)CC)nc2c1c(=O)[nH]c(=O)n2C` (configuration not stated): > 43.8 µM (inactive).

The values are drawn from PubChem BioAssay AID1053170 (The Scripps Research Institute Molecular Screening Center, 2014).
